Measured values from patent US20220257557A1, “PHARMACEUTICAL COMPOSITION FOR PREVENTING OR TREATING NEUROLOGICAL DISEASES” (GLACEUM INC., priority 2019, published 2022).

Legend:
RAW264.7 cells [1] = assay: iNOS and COX-2 expression after LPS (Western blot); type: cell-based; conditions: 3 h pretreatment (Table 3 amounts), LPS 1 μg/ml 24 h
Experimental: (§1) RAW264.7 cells or BV2 cells (5×10^5 cells/well) were dispensed in DMEM containing 10% heat-inactivated FBS, 10 IU/mL penicillin G, 100 μg/mL streptomycin and 2 mM L-glutamine and cultured in a 5% CO2 incubator at a temperature of 37° C.
(§2) The compound of Formula III-3, III-4, V-3, III-1, IV-1, V-1, IV-2, V-2 or II-2 was added to the RAW264.7 cells or BV2 cells, and the toxicities of the compounds were determined by MTT assay.
(§3) The pretreated cells of Experimental Example 4-1 were treated with 1 μg/ml of LPS for 24 hours, and then the expression levels of iNOS and COX-2 were observed through Western blot, and the production of NO and PGE2 was measured.

BV2 cells [2] = assay: iNOS and COX-2 expression after LPS (Western blot); type: cell-based; conditions: 3 h pretreatment (Table 3 amounts), LPS 1 μg/ml 24 h
Experimental: as §1, §2, §3

RAW264.7 cells [3] = assay: IL-1β, IL-6 and TNF-α mRNA expression after LPS (RT-PCR); type: cell-based; conditions: 3 h pretreatment (Table 3 amounts), LPS 1 μg/ml 6 h
Experimental: as §1, §2
(§4) The pretreated cells of Experimental Example 4-1 were treated with 1 μg/ml of LPS for 6 hours, and then the mRNA expression level of the cytokine IL-1β, IL-6 or TNF-α produced in the inflammatory response was analyzed using RT-PCR.

BV2 cells [4] = assay: as above; type: cell-based; conditions: 3 h pretreatment (Table 3 amounts), LPS 1 μg/ml 6 h
Experimental: as §1, §2, §4

RAW264.7 cells [5] = assay: Transcription of NF-κB protein (p65, p50) into nucleus after LPS (Western blot); type: cell-based; conditions: 3 h pretreatment (Table 3 amounts), LPS 1 μg/ml 1 h
Experimental: RAW264.7 cells or BV2 cells (5×10^5 cells/well) were dispensed in DMEM containing 10% heat-inactivated FBS, 10 IU/mL penicillin G, 100 μg/mL streptomycin and 2 mM L-glutamine and cultured in a 5% CO2 incubator at a temperature of 37° C. […]
(§5) The pretreated cells of Experimental Example 4-1 were treated with 1 μg/ml of LPS for 1 hour, and then the level of transcription of NF-κB protein into the nucleus of each of p65 and p50 was analyzed through Western blot.

[6] = target: T1, rePON1 (PON1, paraoxonase 1) (Homo sapiens, UniProt P27169); assay: Prevention of inhibition of PON1 activity by oxidized linolenic acid (TBBL substrate); type: biochemical; conditions: for extent to which inhibition of rePON1 activity was prevented, compared with glabridin: compound 30 μM vs glabridin 30 μM; for extent to which inhibition of rePON1 activity was prevented, compared with glabridin / inhibition of rePON1 activity by oxidized linolenic acid: result in words; for inhibition of rePON1 activity by oxidized linolenic acid: compound 30 μM; for activity at 30 µM: 30 μM compound with rePON1 30 min, then oxidized linolenic acid 2 h, TBBL substrate, normal control 100, negative control 73.64
T1 construct: purchased Thermo Corp. RP-75678
Experimental: Based on the fact that the activity of PON1 is inhibited when PON1 is treated with oxidized linolenic acid, an experiment was conducted to confirm the prevention of inhibition of PON1 activity. The activity of PON1 was measured using TBBL (5-thiobutyl butyrolactones) as a substrate.
Specifically, after 9.6 μl of 50 mM Tris-HCl containing 1 mM CaCl2 was added to each of […] Eppendorf tubes, 0.2 μl of each of the compounds of Formulas III-1, IV-1, V-1, IV-2, V-2, II-1, IV-3, V-3, III-2, IV-4, V-4, II-2 and III-3 and glabridine was added to each tube so that the concentration thereof was 30 μM. 0.2 μl of rePON1 (RP-75678, Thermo Corp.) was added to each of the 12 tubes and mixed. Thereafter, each of the mixtures was allowed to react at room temperature for 30 minutes, and 0.5 μl of 1 mM oxidized linolenic acid (OX-LA) dissolved in DMSO was added thereto in order to inhibit rePON1 activity, followed by reaction at room temperature for 2 hours, thus preparing solutions (I).
25 μl of 0.5 mM DTNB dissolved in 50 mM Tris-HCl containing 1 mM CaCl2 was dispensed into each well of a 384-well plate, and then 10 μl of each of the solutions (I) was dispensed into each well, and 20 μl of 2 mM TBBL dissolved in 50 mM Tris-HCl containing 1 mM CaCl2 was added to each well, thus preparing samples. The absorbance of each of the samples at 420 nm was measured using a spectrometer (SpectraMax M2) at 37° C. every 2 minutes for 1 hour.
In addition, a negative control was prepared in the same manner as the above-described method, except that, for the preparation of a solution, 0.2 μl of DMSO was added instead of the compounds of Formulas III-1, IV-1, V-1, IV-2, V-2, II-1, IV-3, V-3, III-2, IV-4, V-4, II-2 and III-3 and glabridin. Furthermore, a normal control was prepared in the same manner as the above-described method, except that, for the preparation of a solution, 0.2 μl of DMSO was added instead of the above-described compounds and glabridin and that oxidized linolenic acid was not added. The absorbance of each of the negative control and the normal control was measured.
Using SoftMax Pro software, the activity of PON1 was calculated from the absorbance using the following Equation 1, and the results are shown in Table 1 below.
Activity=(absorbancesample−absorbanceblank)/(absorbancePON1−absorbanceblank)*100 [Equation 1]

BV2 cells [7] = assay: Transcription of NF-κB protein (p65, p50) into nucleus after LPS (Western blot); type: cell-based; conditions: 3 h pretreatment (Table 3 amounts), LPS 1 μg/ml 1 h
Experimental: as §1, §2, §5

RAW264.7 cells [8] = assay: NO and PGE2 production after LPS; type: cell-based; conditions: 3 h pretreatment (Table 3 amounts), LPS 1 μg/ml 24 h
Experimental: as §1, §2, §3

BV2 cells [9] = assay: NO and PGE2 production after LPS; type: cell-based; conditions: 3 h pretreatment (Table 3 amounts), LPS 1 μg/ml 24 h
Experimental: as §1, §2, §3

T1 sequence (P27169 whole entry): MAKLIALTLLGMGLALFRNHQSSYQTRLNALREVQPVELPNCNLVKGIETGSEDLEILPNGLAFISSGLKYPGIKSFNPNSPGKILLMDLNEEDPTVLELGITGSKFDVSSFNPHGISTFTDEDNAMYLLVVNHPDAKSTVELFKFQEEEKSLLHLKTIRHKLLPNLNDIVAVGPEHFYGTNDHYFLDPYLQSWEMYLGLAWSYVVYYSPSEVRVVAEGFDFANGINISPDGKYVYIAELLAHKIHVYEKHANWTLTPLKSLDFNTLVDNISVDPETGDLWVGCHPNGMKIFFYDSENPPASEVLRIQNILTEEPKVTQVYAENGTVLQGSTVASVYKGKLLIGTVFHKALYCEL

## CCCOc1ccc(C2=Cc3ccc4c(c3OC2)C=CC(C)(C)O4)c(O)c1 [Formula II-2, 2-(8,8-dimethyl-2,8-dihydropyrano[2,3-f]chromen-3-yl)-5-propoxyphenol]
RAW264.7 cells [1]
  expression level of COX-2: concentration-dependently decreased
  expression level of iNOS: concentration-dependently decreased
BV2 cells [2]
  expression level of COX-2: concentration-dependently decreased
  expression level of iNOS: concentration-dependently decreased
RAW264.7 cells [3]
  mRNA expression level of IL-1β: concentration-dependently decreased
  mRNA expression level of IL-6: concentration-dependently decreased
  mRNA expression level of TNF-α: concentration-dependently decreased
BV2 cells [4]
  mRNA expression level of IL-1β: concentration-dependently decreased
  mRNA expression level of IL-6: concentration-dependently decreased
  mRNA expression level of TNF-α: concentration-dependently decreased
RAW264.7 cells [5]
  level of transcription of NF-κB protein into the nucleus, p50: concentration-dependently decreased
  level of transcription of NF-κB protein into the nucleus, p65: concentration-dependently decreased
[6]
  extent to which inhibition of rePON1 activity was prevented, compared with glabridin: greater
  inhibition of rePON1 activity by oxidized linolenic acid: prevented
BV2 cells [7]
  level of transcription of NF-κB protein into the nucleus, p50: concentration-dependently decreased
  level of transcription of NF-κB protein into the nucleus, p65: concentration-dependently decreased
RAW264.7 cells [8]
  production of NO: concentration-dependently decreased
  production of PGE2: concentration-dependently decreased
BV2 cells [9]
  production of NO: concentration-dependently decreased
  production of PGE2: concentration-dependently decreased

## CCOc1ccc([C@H]2COc3c(ccc4c3CCC(C)(C)O4)C2)c(O)c1 [Formula V-1, (S)-2-(8,8-dimethyl-2,3,4,8,9,10-hexahydropyrano[2,3-f]chromen-3-yl)-5-ethoxyphenol]
RAW264.7 cells [1]
  expression level of COX-2: concentration-dependently decreased
  expression level of iNOS: concentration-dependently decreased
BV2 cells [2]
  expression level of COX-2: concentration-dependently decreased
  expression level of iNOS: concentration-dependently decreased
RAW264.7 cells [3]
  mRNA expression level of IL-1β: concentration-dependently decreased
  mRNA expression level of IL-6: concentration-dependently decreased
  mRNA expression level of TNF-α: concentration-dependently decreased
BV2 cells [4]
  mRNA expression level of IL-1β: concentration-dependently decreased
  mRNA expression level of IL-6: concentration-dependently decreased
  mRNA expression level of TNF-α: concentration-dependently decreased
RAW264.7 cells [5]
  level of transcription of NF-κB protein into the nucleus, p50: concentration-dependently decreased
  level of transcription of NF-κB protein into the nucleus, p65: concentration-dependently decreased
[6]
  activity at 30 µM: 80.7%
  extent to which inhibition of rePON1 activity was prevented, compared with glabridin: greater
  inhibition of rePON1 activity by oxidized linolenic acid: prevented
BV2 cells [7]
  level of transcription of NF-κB protein into the nucleus, p50: concentration-dependently decreased
  level of transcription of NF-κB protein into the nucleus, p65: concentration-dependently decreased
RAW264.7 cells [8]
  production of NO: concentration-dependently decreased
  production of PGE2: concentration-dependently decreased
BV2 cells [9]
  production of NO: concentration-dependently decreased
  production of PGE2: concentration-dependently decreased

## CCOc1ccc([C@@H]2COc3c(ccc4c3CCC(C)(C)O4)C2)c(O)c1 [Formula IV-1, (R)-2-(8,8-dimethyl-2,3,4,8,9,10-hexahydropyrano[2,3-f]chromen-3-yl)-5-ethoxyphenol]
RAW264.7 cells [1]
  expression level of COX-2: concentration-dependently decreased
  expression level of iNOS: concentration-dependently decreased
BV2 cells [2]
  expression level of COX-2: concentration-dependently decreased
  expression level of iNOS: concentration-dependently decreased
RAW264.7 cells [3]
  mRNA expression level of IL-1β: concentration-dependently decreased
  mRNA expression level of IL-6: concentration-dependently decreased
  mRNA expression level of TNF-α: concentration-dependently decreased
BV2 cells [4]
  mRNA expression level of IL-1β: concentration-dependently decreased
  mRNA expression level of IL-6: concentration-dependently decreased
  mRNA expression level of TNF-α: concentration-dependently decreased
RAW264.7 cells [5]
  level of transcription of NF-κB protein into the nucleus, p50: concentration-dependently decreased
  level of transcription of NF-κB protein into the nucleus, p65: concentration-dependently decreased
[6]
  activity at 30 µM: 95%
  extent to which inhibition of rePON1 activity was prevented, compared with glabridin: greater
  inhibition of rePON1 activity by oxidized linolenic acid: prevented
BV2 cells [7]
  level of transcription of NF-κB protein into the nucleus, p50: concentration-dependently decreased
  level of transcription of NF-κB protein into the nucleus, p65: concentration-dependently decreased
RAW264.7 cells [8]
  production of NO: concentration-dependently decreased
  production of PGE2: concentration-dependently decreased
BV2 cells [9]
  production of NO: concentration-dependently decreased
  production of PGE2: concentration-dependently decreased
